This is an account of results in patent US8759537B2, “3H-imidazo [4, 5-C] pyridine-6-carboxamides as anti-inflammatory agents” (Boehringer Ingelheim International GmbH, priority 2010, dated 2014).

Structures are written as SMILES. Where only a bound is given, the exact number is not on record here.

Assay [1] has as its target T1, mPGES-1 (Homo sapiens (Human), UniProt O14684). As to the kind of experiment: mPGES-1 enzyme assay (HTRF detection of PGE2). The assay is classed as biochemical.
Assay [2] deals with T1, mPGES-1. As to the kind of experiment: A549 cell-based assay (PGE2 formation, IL-1β stimulated, 50% human serum). To be noted: A549 cells. In a few lines:
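Human A549 cells (7000 cells/well) in F-12 medium with 50% human serum, with IL-1β stimulation. IC50 from 6-8 point titrations.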

Where [3] appears, read: recombinant human mPGES-1 microsomes, PGH2 2 μM, read-out: mPGES-1 inhibitory effect in the enzyme assay, IC50.
The mark [4] stands for this setting: IL-1β 5 ng/ml, read-out: mPGES-1 inhibitory effect in the cell assay, IC50.
[5] abbreviates: Table C comparison of selected benzimidazoles, read-out: Enzym IC50.
The mark [6] stands for this setting: Table C comparison of selected benzimidazoles, read-out: Cell IC50.

T1 sequence (O14684 whole entry): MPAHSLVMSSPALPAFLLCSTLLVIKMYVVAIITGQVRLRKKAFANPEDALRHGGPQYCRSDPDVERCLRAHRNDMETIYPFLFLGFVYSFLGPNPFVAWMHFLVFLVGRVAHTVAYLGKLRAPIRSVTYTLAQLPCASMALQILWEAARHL

`Cn1c(Nc2c(Cl)ccc(CNC(=O)C(C)(C)C)c2F)nc2cc(C(=O)N[C@H]3CC[C@H](C(F)(F)F)CC3)c(OCC(F)F)cc21` [Example 76]: the 50% inhibitory concentration (IC50) is 3 nM in assay [1] (setting [3]) and 2 nM in assay [2] (setting [4]).
For `Cn1c(Nc2c(Cl)ccc(CNC(=O)C(C)(C)C)c2F)nc2cc(C(=O)NCC(F)(F)F)c(OCC(F)F)cc21` [Example 77] the same measures were 2 nM and 12 nM.
As to `Cn1c(Nc2c(Cl)ccc(CNC(=O)N3CC(F)(F)C3)c2Cl)nc2cc(C(=O)N[C@H]3CC[C@H](C(F)(F)F)CC3)c(OCC(F)F)cc21` [Example 80, N-(trans-4-Trifluoromethyl-cyclohex-1-yl)-2-{2,6-dichloro-3-[(3,3-difluoro-azetidine-1-carbonylamino)-methyl]-phenylamino}-6-(2,2-difluoroethoxy)-1-methyl-1H-benzimidazole-5-carboxylic acid amide], the 50% inhibitory concentration (IC50) in assay [1] (setting [3]) was found to be 1 nM; in assay [2] (setting [4]) it was 7 nM.
For `Cn1c(Nc2c(Cl)ccc(CNC(=O)N3CCC(F)(F)C3)c2Cl)nc2cc(C(=O)N[C@H]3CC[C@H](C(F)(F)F)CC3)c(OCC(F)F)cc21` [Example 81] the same measures were 3 nM and 50 nM.
As for `CC1CCCN1C(=O)NCc1ccc(Cl)c(Nc2nc3cc(C(=O)N[C@H]4CC[C@H](C(F)(F)F)CC4)c(OCC(F)F)cc3n2C)c1Cl` (some centres unmarked) [Example 82], the figures for the IC50 in assay [1] (setting [3]) and in assay [2] (setting [4]) were 1 nM and 43 nM, respectively.
For the molecule `Cn1c(Nc2c(Cl)ccc(CNC(=O)C(C)(C)C)c2Cl)nc2cc(C(=O)Nc3c(F)ccc(F)c3F)c(OCC(F)F)cc21` [Example 85], the IC50 in assay [1] (setting [3]) turned out to be 1 nM; in assay [2] (setting [4]), 4 nM.
Turning to `COCCOc1cc2c(cc1C(=O)Nc1ccc(F)c(Cl)c1)nc(Nc1c(Cl)ccc(CNC(=O)C(C)(C)C)c1Cl)n2C` [Example 178], the IC50 is 1 nM in assay [1] (setting [3]) and less than 1 nM in assay [2] (setting [4]).
With `Cn1c(Nc2c(Cl)ccc(CNC(=O)C(C)(C)C)c2Cl)nc2cc(C(=O)Nc3ccc(F)c(Cl)c3)c(OC3CCOC3)cc21` (centres unmarked) [Example 179], the values for the IC50 in assay [1] (setting [3]) and in assay [2] (setting [4]) were 1 nM and less than 1 nM, respectively.
Take `CC(C)(C)C(=O)NCc1ccc(Cl)c(Nc2nc3cc(C(=O)N[C@H]4CC[C@H](C(F)(F)F)CC4)c(F)c(F)c3[nH]2)c1Cl` [Example 180]: the IC50 in assay [1] (setting [3]) worked out at 2 nM; in assay [2] (setting [4]) it was 93 nM.
For the molecule `Cn1c(Nc2cc(CNC(=O)C(C)(C)C)ccc2Cl)nc2cc(C(=O)N[C@H]3CC[C@H](C(F)(F)F)CC3)c(OCC(F)F)cc21` [[drawing 47] of PCT/EP2010/052799, reference compound], the figures for the IC50 in assay [1] (setting [5]) and in assay [2] (setting [6]) were 3 nM and 17 nM, respectively.
For `Cn1c(Nc2c(Cl)ccc(CNC(=O)C(C)(C)C)c2Cl)nc2cc(C(=O)Nc3ccc(Br)cc3)c(OCC(F)F)cc21` [drawing 44], the values for the IC50 in assay [1] (setting [5]) and in assay [2] (setting [6]) were 2 nM and less than 1 nM, respectively.
Consider `Cn1c(Nc2c(Cl)ccc(CNC(=O)C(C)(C)C)c2Cl)nc2cc(C(=O)N[C@H]3CC[C@H](C(F)(F)F)CC3)c(OCC(F)F)cc21` [drawing 46], for which the half-maximal inhibitory concentration (IC50) was 2 nM in assay [1] (setting [5]) and less than 1 nM in assay [2] (setting [6]).
As for `Cn1c(Nc2c(Cl)ccc(CNC(=O)C(C)(C)C)c2Cl)nc2cc(C(=O)NCC3CC3)c(OCC(F)F)cc21` [drawing 48], the IC50 in assay [1] (setting [5]) is 4 nM; in assay [2] (setting [6]), 1 nM.
